In patent US12527886B2, “Radiopharmaceuticals and composition for thrombus imaging” (THE ASAN FOUNDATION, priority 2020, dated 2026):

Legend:
glycoprotein IIb/IIIa = molecular target: T1, glycoprotein IIb/IIIa (Rattus norvegicus, UniProt A0A8I6GGN2+Q8R2H2); assay: Glycoprotein IIb/IIIa specific uptake in thrombotic disease model, gamma counter / microSPECT; format: in vivo, rats
T1 construct: a disease model in which a thrombus was formed with glycoprotein IIb/IIIa overexpressed; from tissue; host or cells: in vivo rat carotid artery thrombus (ferric chloride model)
T1 sequence (A0A8I6GGN2 32-1037): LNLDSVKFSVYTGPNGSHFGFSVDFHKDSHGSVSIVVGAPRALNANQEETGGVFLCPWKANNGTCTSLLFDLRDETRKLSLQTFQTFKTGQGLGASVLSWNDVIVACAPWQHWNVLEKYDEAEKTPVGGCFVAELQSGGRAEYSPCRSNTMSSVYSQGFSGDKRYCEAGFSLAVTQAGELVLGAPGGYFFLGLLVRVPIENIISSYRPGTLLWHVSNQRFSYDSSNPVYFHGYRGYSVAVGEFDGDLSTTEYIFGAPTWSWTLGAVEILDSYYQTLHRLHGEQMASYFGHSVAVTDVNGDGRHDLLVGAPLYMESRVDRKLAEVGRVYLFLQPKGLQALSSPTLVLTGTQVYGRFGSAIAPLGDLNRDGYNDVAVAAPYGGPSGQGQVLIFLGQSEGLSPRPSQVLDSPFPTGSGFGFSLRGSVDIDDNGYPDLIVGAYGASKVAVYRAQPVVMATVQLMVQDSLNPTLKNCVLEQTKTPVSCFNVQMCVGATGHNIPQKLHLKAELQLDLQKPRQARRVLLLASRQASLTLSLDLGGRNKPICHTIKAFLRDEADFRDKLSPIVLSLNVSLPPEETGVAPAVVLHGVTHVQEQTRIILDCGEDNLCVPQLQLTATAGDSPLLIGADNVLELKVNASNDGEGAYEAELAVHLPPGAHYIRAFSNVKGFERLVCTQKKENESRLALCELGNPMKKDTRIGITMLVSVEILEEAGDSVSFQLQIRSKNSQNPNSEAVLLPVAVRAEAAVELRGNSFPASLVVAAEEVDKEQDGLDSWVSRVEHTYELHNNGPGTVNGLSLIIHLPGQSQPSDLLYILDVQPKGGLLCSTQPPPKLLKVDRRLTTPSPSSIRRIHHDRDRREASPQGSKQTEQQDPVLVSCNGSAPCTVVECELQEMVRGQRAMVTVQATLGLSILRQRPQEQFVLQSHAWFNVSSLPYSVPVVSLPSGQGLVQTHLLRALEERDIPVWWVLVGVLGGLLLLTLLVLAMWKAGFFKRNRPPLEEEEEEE
T1 sequence (Q8R2H2 26-787): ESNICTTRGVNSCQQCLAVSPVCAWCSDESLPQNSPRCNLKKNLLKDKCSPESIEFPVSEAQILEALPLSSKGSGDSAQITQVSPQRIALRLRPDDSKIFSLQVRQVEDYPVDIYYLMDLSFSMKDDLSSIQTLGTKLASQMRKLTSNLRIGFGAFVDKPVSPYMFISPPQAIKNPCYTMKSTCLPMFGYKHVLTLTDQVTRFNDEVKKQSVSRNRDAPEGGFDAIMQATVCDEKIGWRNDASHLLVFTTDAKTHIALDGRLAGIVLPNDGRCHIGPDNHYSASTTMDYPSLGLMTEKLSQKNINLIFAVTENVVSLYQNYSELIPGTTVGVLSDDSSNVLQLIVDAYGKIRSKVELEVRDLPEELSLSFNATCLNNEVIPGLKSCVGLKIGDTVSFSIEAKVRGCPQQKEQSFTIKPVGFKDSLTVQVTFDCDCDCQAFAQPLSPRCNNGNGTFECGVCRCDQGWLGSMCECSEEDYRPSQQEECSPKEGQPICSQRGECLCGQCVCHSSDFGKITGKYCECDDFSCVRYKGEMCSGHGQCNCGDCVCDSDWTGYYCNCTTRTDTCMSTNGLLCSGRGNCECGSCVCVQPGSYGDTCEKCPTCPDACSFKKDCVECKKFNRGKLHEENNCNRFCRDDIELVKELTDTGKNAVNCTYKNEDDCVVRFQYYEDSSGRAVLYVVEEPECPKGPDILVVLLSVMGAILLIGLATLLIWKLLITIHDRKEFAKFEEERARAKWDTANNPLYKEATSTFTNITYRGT
From the text: After 6-week-old rats were anesthetized to make a thrombotic disease model, the carotid artery was secured by opening the skin on the carotid artery side. Then, a filter paper soaked with a 5% ferric chloride solution was exposed on the artery, and then washed three times or more with physiological saline, and the incised skin was sutured again to make a model. […]

[1] = Stability of Tc-99m labeled compound, labeling purity by HPLC; format: physicochemical
Protocol: 2 mL of Tc-99m was added dropwise to a lyophilized vial including 0.1 mg of GP-104, 15 μg of SnCl2, and 10 μg of cysteine, the vial was allowed to stand at room temperature for 10 minutes, and the reaction was terminated by adjusting pH to 7 using a NaOH solution. Labeling purity was confirmed to be 93.21% by HPLC (analysis conditions: Luna C18 250×4.6 mm, phosphate buffer:acetonitrile (100:0, 0 to 5 minutes; 80:20, 5 to 10 minutes; 80:20, 17 minutes; 100:0, 17.1 minutes). 100:0. 20 min), 1.0 mL/min, UV=280 nm).
In order to confirm the effect of cysteine addition after the reaction, the following experiment was performed: 0.1 mg of GP-104 was dissolved in water for injection, the pH was adjusted to about 3.5 when 10 μL of SnCl2 (1.5 mg/mL) and 2 mL of Tc-99m were added thereto, and the resulting mixture was allowed to stand at room temperature for 10 minutes. The reaction was terminated by adjusting the pH to 7 using a NaOH solution and 10 μL of cysteine (1.0 mg/mL). Labeling purity was confirmed to be 91.4% using HPLC in the same manner as in Example 2-7.
After 0.1 mg of GP-104 was dissolved in water for injection, pH was adjusted to about 3.5 and the resulting solution was allowed to stand at room temperature for 10 minutes when 10 μL of SnCl2 (1.5 mg/mL), 10 μL of cysteine (1.0 mg/mL) and 2 mL of Tc-99m were added thereto, and the reaction was terminated by adjusting the pH to 7 using a NaOH solution. Labeling purity was confirmed to be 94.84% using HPLC in the same manner as in Example 2-7.
HCl and NaOH was additionally added dropwise to the solution of Example 2-8 to perform a stability evaluation by adjusting the final pH of the solution to acidic (pH 5.5) and basic (pH 8.5) conditions, and labeling purity was confirmed using HPLC in the same manner as in Example 2-7.
HCl and NaOH was additionally added dropwise to the solution of Example 2-9 to perform a stability evaluation by adjusting the final pH of the solution to acidic (pH 5.5) and basic (pH 8.5) conditions, and labeling purity was confirmed using HPLC in the same manner as in Example 2-7.
HCl and NaOH was additionally added dropwise to the solution of Example 2-10 to perform a stability evaluation by adjusting the final pH of the solution to acidic (pH 5.5) and basic (pH 8.5) conditions, and labeling purity was confirmed using HPLC in the same manner as in Example 2-7.
0.1 mg of GP-105 was dissolved in water for injection, the pH was adjusted to about 3.5 when 10 μL of SnCl2 (1.5 mg/mL) and 2 mL of Tc-99m were added thereto, and the resulting mixture was allowed to stand at room temperature for 10 minutes. The reaction was terminated by adjusting the pH to 7 using a NaOH solution and 10 μL of cysteine (1.0 mg/mL). Labeling purity was confirmed to be 98.1% using HPLC in the same manner as in Example 2-7.
HCl and NaOH was additionally added dropwise to the solution of Example 2-12 to perform a stability evaluation by adjusting the final pH of the solution to acidic (pH 5.5) and basic (pH 8.5) conditions, and labeling purity was confirmed using HPLC in the same manner as in Example 2-7.
HCl and NaOH was additionally added dropwise to the solution of Example 2-13 to perform a stability evaluation by adjusting the final pH of the solution to acidic (pH 5.5) and basic (pH 8.5) conditions, and labeling purity was confirmed using HPLC in the same manner as in Example 2-7.
HCl and NaOH was additionally added dropwise to the solution of Example 2-14 to perform a stability evaluation by adjusting the final pH of the solution to acidic (pH 5.5) and basic (pH 8.5) conditions, and labeling purity was confirmed using HPLC in the same manner as in Example 2-7.

[2] = gamma counter, sacrificed at the 2nd hour

SMILES: O=C(O)C[C@H](NC(=O)[C@@H]1CCCN(C(=O)CCC2CCNCC2)C1)c1cncc(OCCNC(=O)CN2CC(=O)[O][99Tc-]3([O]C(=O)C2)[O]C(=O)CN(CC(=O)NCCOc2cncc([C@H](CC(=O)O)NC(=O)[C@@H]4CCCN(C(=O)CCC5CCNCC5)C4)c2)CC(=O)[O]3)c1 [[Tc-99m]GP-105]
- specific uptake in the disease model (glycoprotein IIb/IIIa): high specific uptake
- target to non target ratio (glycoprotein IIb/IIIa; gamma counter, 2nd hour): 2.7
- counts per minute (CPM)/g value, left artery (glycoprotein IIb/IIIa; [2]): 23.5 CPM/g
- counts per minute (CPM)/g value, right artery (glycoprotein IIb/IIIa; [2]): 63.9 CPM/g
- background radioactivity excretion (glycoprotein IIb/IIIa; microSPECT until 4 hours): quick background radioactivity excretion effect
- radiochemical purity (HPLC) ([1]; Ex 4-3, addition of cysteine after reaction, NaOH mixed, 0 hour): 98.06%
- radiochemical purity (HPLC) ([1]; Ex 4-3, addition of cysteine after reaction, NaOH mixed, 1 hour): 95.17%
- radiochemical purity (HPLC) ([1]; Ex 4-3, addition of cysteine after reaction, NaOH mixed, 2 hours): 94.14%
- radiochemical purity (HPLC) ([1]; Ex 4-3, addition of cysteine after reaction, NaOH mixed, 3 hours): 91.91%
- radiochemical purity (HPLC) ([1]; Ex 4-3, addition of cysteine after reaction, NaOH mixed, 4 hours): 89.00%
- radiochemical purity (HPLC) ([1]; Ex 4-3, addition of cysteine after reaction, NaOH separately, 0 hour): 99.39%
- radiochemical purity (HPLC) ([1]; Ex 4-3, addition of cysteine after reaction, NaOH separately, 1 hour): 99.04%
- radiochemical purity (HPLC) ([1]; Ex 4-3, addition of cysteine after reaction, NaOH separately, 2 hours): 97.02%
- radiochemical purity (HPLC) ([1]; Ex 4-3, addition of cysteine after reaction, NaOH separately, 3 hours): 91.14%
- radiochemical purity (HPLC) ([1]; Ex 4-3, addition of cysteine after reaction, NaOH separately, 4 hours): 66.87%
- radiochemical purity (HPLC) ([1]; solution of Example 2-12 (165 nmol cysteine), pH 5.5, 0 hr): 100%
- radiochemical purity (HPLC) ([1]; solution of Example 2-12 (165 nmol cysteine), pH 5.5, 2 hr): 85.49%
- radiochemical purity (HPLC) ([1]; solution of Example 2-12 (165 nmol cysteine), pH 5.5, 4 hr): 82.11%
- radiochemical purity (HPLC) ([1]; solution of Example 2-12 (165 nmol cysteine), pH 7, 0 hr): 100%
- radiochemical purity (HPLC) ([1]; solution of Example 2-12 (165 nmol cysteine), pH 7, 2 hr): 94.88%
- radiochemical purity (HPLC) ([1]; solution of Example 2-12 (165 nmol cysteine), pH 7, 4 hr): 85.55%
- radiochemical purity (HPLC) ([1]; solution of Example 2-12 (165 nmol cysteine), pH 8.5, 0 hr): 100%
- radiochemical purity (HPLC) ([1]; solution of Example 2-12 (165 nmol cysteine), pH 8.5, 2 hr): 50.64%
- radiochemical purity (HPLC) ([1]; solution of Example 2-12 (165 nmol cysteine), pH 8.5, 4 hr): 23.98%
- radiochemical purity (HPLC) ([1]; solution of Example 2-13 (82.5 nmol cysteine + 82.5 nmol VB1), pH 5.5, 0 hr): 100%
- radiochemical purity (HPLC) ([1]; solution of Example 2-13 (82.5 nmol cysteine + 82.5 nmol VB1), pH 5.5, 2 hr): 100%
- radiochemical purity (HPLC) ([1]; solution of Example 2-13 (82.5 nmol cysteine + 82.5 nmol VB1), pH 5.5, 4 hr): 98.63%
- radiochemical purity (HPLC) ([1]; solution of Example 2-13 (82.5 nmol cysteine + 82.5 nmol VB1), pH 7, 0 hr): 100%
- radiochemical purity (HPLC) ([1]; solution of Example 2-13 (82.5 nmol cysteine + 82.5 nmol VB1), pH 7, 2 hr): 100%
- radiochemical purity (HPLC) ([1]; solution of Example 2-13 (82.5 nmol cysteine + 82.5 nmol VB1), pH 7, 4 hr): 94.88%
- radiochemical purity (HPLC) ([1]; solution of Example 2-13 (82.5 nmol cysteine + 82.5 nmol VB1), pH 8.5, 0 hr): 100%
- radiochemical purity (HPLC) ([1]; solution of Example 2-13 (82.5 nmol cysteine + 82.5 nmol VB1), pH 8.5, 2 hr): 94.13%
- radiochemical purity (HPLC) ([1]; solution of Example 2-13 (82.5 nmol cysteine + 82.5 nmol VB1), pH 8.5, 4 hr): 90.17%
